Laboratory results from US20230303549A1, “SUBSTITUTED HETEROARYLOXYPYRIDINES, THE SALTS THEREOF AND THEIR USE AS HERBICIDAL AGENTS” (Bayer Aktiengesellschaft, priority 2020, published 2023).

Columns and labels:
Assay type in all cases: in vivo
[1] = tested on: Abutilon theophrasti (ABUTH); test: Pre-emergence herbicide efficacy at 320 g/ha, greenhouse pot test; conditions: visual scoring vs untreated control after about 3 weeks
Text: (§1) Seeds of mono- and dicotyledonous weed plants were placed in plastic pots in sandy loam soil (doubly sown with in each case one species of mono- or dicotyledonous weed plants per pot) and covered with soil. The compounds of the invention, formulated in the form of wettable powders (WP) or as emulsion concentrates (EC), were then applied onto the surface of the covering soil as aqueous suspension or emulsion with addition of 0.5% additive at a water application rate of 600 liters per hectare (converted). After the treatment, the pots were placed in a greenhouse and kept under good growth conditions for the test plants. After about 3 weeks, the effect of the preparations was scored visually in comparison with untreated controls as percentages. For example, 100% activity=the plants have died, 0% activity=like control plants. Tables C1 to C12 below show the effects of selected compounds of the general formula (I) according to Table 1 on various harmful plants and an application rate corresponding to 320 g/ha, which were obtained by the experimental procedure mentioned above.

[2] = tested on: Amaranthus retroflexus (AMARE); test: as above; conditions: visual scoring vs untreated control after about 3 weeks
Text: as §1

Poa annua (POAAN) [3] = test: as above; conditions: visual scoring vs untreated control after about 3 weeks
Text: as §1

Stellaria media (STEME) [4] = test: as above; conditions: visual scoring vs untreated control after about 3 weeks
Text: as §1

[5] = tested on: Amaranthus retroflexus (AMARE); test: Post-emergence herbicidal efficacy at 320 g/ha, greenhouse pot test; conditions: visual rating vs untreated control after about 3 weeks
Method: (§2) Seeds of mono- and dicotyledonous weed plants were placed in plastic pots in sandy loam soil (doubly sown with in each case one species of mono- or dicotyledonous weed plants per pot), covered with soil and cultivated in a greenhouse under controlled growth conditions. 2 to 3 weeks after sowing, the test plants were treated at the one-leaf stage. The compounds of the invention, formulated in the form of wettable powders (WP) or as emulsion concentrates (EC), were applied onto the green parts of the plants as aqueous suspension or emulsion with addition of 0.5% additive at a water application rate of 600 liters per hectare (converted). After the test plants had been kept in the greenhouse under optimum growth conditions for about 3 weeks, the activity of the preparations was rated visually in comparison to untreated controls. For example, 100% activity=the plants have died, 0% activity=like control plants. Tables […] 11 below show the effects of selected compounds of the general formula (I) according to Table 1 on various harmful plants and an application rate corresponding to 320 g/ha, which were obtained by the experimental procedure mentioned above.

Veronica persica (VERPE) [6] = test: as above; conditions: 320 g/ha, visual rating vs untreated control after about 3 weeks
Method: as §2

Poa annua (POAAN) [7] = test: as above; conditions: visual rating vs untreated control after about 3 weeks
Method: as §2

Stellaria media (STEME) [8] = test: as above; conditions: visual rating vs untreated control after about 3 weeks
Method: as §2

[9] = tested on: Matricaria inodora (MATIN); test: Pre-emergence herbicide efficacy at 320 g/ha, greenhouse pot test; conditions: visual scoring vs untreated control after about 3 weeks
Text: as §1

Bassia scoparia (KCHSC) = test: as above; conditions: dosage 1280 g/ha in Table C6, visual scoring after about 3 weeks
Text: as §1

[10] = tested on: Echinochloa crus-galli (ECHCG); test: as above; conditions: visual scoring vs untreated control after about 3 weeks
Text: as §1

Veronica persica (VERPE) [11] = test: as above; conditions: visual scoring vs untreated control after about 3 weeks
Text: as §1

Setaria viridis (SETVI) = test: as above; conditions: visual scoring vs untreated control after about 3 weeks
Text: as §1

[12] = tested on: Abutilon theophrasti (ABUTH); test: Post-emergence herbicidal efficacy at 320 g/ha, greenhouse pot test; conditions: visual rating vs untreated control after about 3 weeks
Method: as §2

Cc1ccc(-c2cc(C(F)F)on2)c(Oc2ncc(Cl)cn2)n1 [Example I-12]
90%: Pre-emergence efficacy against Abutilon theophrasti (ABUTH) [1] | Pre-emergence efficacy against Stellaria media (STEME) (Stellaria media (STEME) [4])
100%: Pre-emergence efficacy against Amaranthus retroflexus (AMARE) [2] | Pre-emergence efficacy against Poa annua (POAAN) (Poa annua (POAAN) [3])

Cc1ccc(-c2cc(C(F)F)on2)c(Oc2ncc(F)cn2)n1 [Example I-13]
90%: Post-emergence efficacy against Amaranthus retroflexus (AMARE) [5]

Cc1cc(C)c(-c2cc(C(F)F)no2)c(Oc2ncc(C#N)cn2)n1 [Example I-46]
100%: Post-emergence efficacy against Veronica persica (VERPE) (Veronica persica (VERPE) [6]) | Post-emergence efficacy against Amaranthus retroflexus (AMARE) [5] | Post-emergence action against Stellaria media (STEME) (Stellaria media (STEME) [8]) | Pre-emergence efficacy against Matricaria inodora (MATIN) [9]
90%: Post-emergence efficacy against Poa annua (POAAN) (Poa annua (POAAN) [7]) | Pre-emergence efficacy against Abutilon theophrasti (ABUTH) [1] | Pre-emergence efficacy against Amaranthus retroflexus (AMARE) [2] | Pre-emergence efficacy against Bassia scoparia (KCHSC) (Bassia scoparia (KCHSC)) | Pre-emergence efficacy against Stellaria media (STEME) (Stellaria media (STEME) [4])

Cc1cc(C)c(-c2cc(C3CC3)no2)c(Oc2ncc(Cl)cc2F)n1 [Example I-180]
100%: Post-emergence action against Stellaria media (STEME) (Stellaria media (STEME) [8]) | Pre-emergence efficacy against Matricaria inodora (MATIN) [9] | Pre-emergence efficacy against Amaranthus retroflexus (AMARE) [2] | Pre-emergence efficacy against Poa annua (POAAN) (Poa annua (POAAN) [3]) | Pre-emergence efficacy against Stellaria media (STEME) (Stellaria media (STEME) [4])
90%: Post-emergence efficacy against Veronica persica (VERPE) (Veronica persica (VERPE) [6])

Cc1cc(C)c(-c2cc(CC3CC3)no2)c(Oc2ncc(F)cn2)n1 [Example I-200]
90%: Post-emergence efficacy against Veronica persica (VERPE) (Veronica persica (VERPE) [6]) | Post-emergence efficacy against Amaranthus retroflexus (AMARE) [5] | Post-emergence action against Stellaria media (STEME) (Stellaria media (STEME) [8]) | Pre-emergence efficacy against Abutilon theophrasti (ABUTH) [1] | Pre-emergence efficacy against Matricaria inodora (MATIN) [9] | Pre-emergence efficacy against Echinochloa crus-galli (ECHCG) [10] | Pre-emergence efficacy against Poa annua (POAAN) (Poa annua (POAAN) [3])
100%: Pre-emergence efficacy against Amaranthus retroflexus (AMARE) [2] | Pre-emergence efficacy against Stellaria media (STEME) (Stellaria media (STEME) [4])

Cc1cc(C)c(-c2cc(CC3CC3)no2)c(Oc2ncc(Cl)cc2F)n1 [Example I-202]
100%: Post-emergence efficacy against Poa annua (POAAN) (Poa annua (POAAN) [7]) | Pre-emergence efficacy against Stellaria media (STEME) (Stellaria media (STEME) [4])
90%: Post-emergence action against Stellaria media (STEME) (Stellaria media (STEME) [8]) | Pre-emergence efficacy against Amaranthus retroflexus (AMARE) [2]

Cc1cc(C)c(-n2cccn2)c(Oc2ncc(F)cn2)n1 [Example I-244]
90%: Pre-emergence efficacy against Veronica persica (VERPE) (Veronica persica (VERPE) [11]) | Pre-emergence efficacy against Bassia scoparia (KCHSC) (Bassia scoparia (KCHSC))

Cc1cc(C)c(-n2cccn2)c(Oc2ncc(Cl)cn2)n1 [Example I-245]
100%: Pre-emergence efficacy against Amaranthus retroflexus (AMARE) [2] | Pre-emergence efficacy against Bassia scoparia (KCHSC) (Bassia scoparia (KCHSC)) | Pre-emergence efficacy against Stellaria media (STEME) (Stellaria media (STEME) [4])
90%: Pre-emergence efficacy against Abutilon theophrasti (ABUTH) [1] | Pre-emergence efficacy against Matricaria inodora (MATIN) [9]

Cc1cc(C)c(-n2cc(Br)cn2)c(Oc2ncc(Cl)cn2)n1 [Example I-278]
90%: Post-emergence efficacy against Veronica persica (VERPE) (Veronica persica (VERPE) [6]) | Post-emergence action against Stellaria media (STEME) (Stellaria media (STEME) [8])
100%: Post-emergence efficacy against Amaranthus retroflexus (AMARE) [5] | Pre-emergence efficacy against Veronica persica (VERPE) (Veronica persica (VERPE) [11]) | Pre-emergence efficacy against Abutilon theophrasti (ABUTH) [1] | Pre-emergence efficacy against Echinochloa crus-galli (ECHCG) [10] | Pre-emergence efficacy against Bassia scoparia (KCHSC) (Bassia scoparia (KCHSC)) | Pre-emergence efficacy against Stellaria media (STEME) (Stellaria media (STEME) [4])

Cc1cc(C)c(-c2cc(C(F)F)no2)c(Oc2ncc(Cl)cc2Cl)n1 [Example I-288]
100%: Post-emergence efficacy against Amaranthus retroflexus (AMARE) [5]
90%: Post-emergence efficacy against Veronica persica (VERPE) (Veronica persica (VERPE) [6]) | Post-emergence efficacy against Poa annua (POAAN) (Poa annua (POAAN) [7]) | Post-emergence action against Stellaria media (STEME) (Stellaria media (STEME) [8]) | Pre-emergence efficacy against Bassia scoparia (KCHSC) (Bassia scoparia (KCHSC)) | Pre-emergence efficacy against Poa annua (POAAN) (Poa annua (POAAN) [3]) | Pre-emergence efficacy against Stellaria media (STEME) (Stellaria media (STEME) [4])

Cc1cc(C)c(-c2cc(C(F)F)no2)c(Oc2ncc(F)cc2C#N)n1 [Example I-289]
90%: Post-emergence efficacy against Veronica persica (VERPE) (Veronica persica (VERPE) [6]) | Post-emergence efficacy against Poa annua (POAAN) (Poa annua (POAAN) [7]) | Post-emergence action against Stellaria media (STEME) (Stellaria media (STEME) [8]) | Pre-emergence efficacy against Bassia scoparia (KCHSC) (Bassia scoparia (KCHSC)) | Pre-emergence efficacy against Stellaria media (STEME) (Stellaria media (STEME) [4])
100%: Post-emergence efficacy against Amaranthus retroflexus (AMARE) [5]

Cc1cc(C)c(-c2cc(C(F)F)no2)c(Oc2ncc(Cl)cc2C#N)n1 [Example I-290]
100%: Post-emergence efficacy against Amaranthus retroflexus (AMARE) [5]
90%: Post-emergence efficacy against Veronica persica (VERPE) (Veronica persica (VERPE) [6])

Cc1cc(C)c(-c2cc(C(F)F)no2)c(Oc2ncc(Br)cc2C#N)n1 [Example I-291]
90%: Post-emergence efficacy against Veronica persica (VERPE) (Veronica persica (VERPE) [6]) | Post-emergence efficacy against Amaranthus retroflexus (AMARE) [5] | Pre-emergence efficacy against Bassia scoparia (KCHSC) (Bassia scoparia (KCHSC))

Cc1cc(C)c(-c2cc(C3CC3)no2)c(Oc2ncc(Br)cn2)n1 [Example I-296]
90%: Post-emergence efficacy against Amaranthus retroflexus (AMARE) [5] | Post-emergence efficacy against Poa annua (POAAN) (Poa annua (POAAN) [7]) | Pre-emergence efficacy against Veronica persica (VERPE) (Veronica persica (VERPE) [11]) | Pre-emergence efficacy against Echinochloa crus-galli (ECHCG) [10]
100%: Post-emergence efficacy against Veronica persica (VERPE) (Veronica persica (VERPE) [6]) | Post-emergence action against Stellaria media (STEME) (Stellaria media (STEME) [8]) | Pre-emergence efficacy against Abutilon theophrasti (ABUTH) [1] | Pre-emergence efficacy against Matricaria inodora (MATIN) [9] | Pre-emergence efficacy against Amaranthus retroflexus (AMARE) [2] | Pre-emergence efficacy against Bassia scoparia (KCHSC) (Bassia scoparia (KCHSC)) | Pre-emergence efficacy against Setaria viridis (SETVI) (Setaria viridis (SETVI)) | Pre-emergence efficacy against Poa annua (POAAN) (Poa annua (POAAN) [3]) | Pre-emergence efficacy against Stellaria media (STEME) (Stellaria media (STEME) [4])

Cc1cc(C)c(-c2cc(C3(C)CC3)no2)c(Oc2ncc(Cl)cn2)n1 [Example I-297]
90%: Post-emergence efficacy against Veronica persica (VERPE) (Veronica persica (VERPE) [6]) | Pre-emergence efficacy against Abutilon theophrasti (ABUTH) [1] | Pre-emergence efficacy against Amaranthus retroflexus (AMARE) [2]
100%: Pre-emergence efficacy against Matricaria inodora (MATIN) [9] | Pre-emergence efficacy against Stellaria media (STEME) (Stellaria media (STEME) [4])

Cc1cc(C)c(-c2cc(C3(C)CC3)no2)c(Oc2ncc(Br)cn2)n1 [Example I-298]
90%: Post-emergence efficacy against Veronica persica (VERPE) (Veronica persica (VERPE) [6]) | Post-emergence efficacy against Abutilon theophrasti (ABUTH) [12] | Post-emergence action against Stellaria media (STEME) (Stellaria media (STEME) [8]) | Pre-emergence efficacy against Matricaria inodora (MATIN) [9] | Pre-emergence efficacy against Amaranthus retroflexus (AMARE) [2]
100%: Pre-emergence efficacy against Stellaria media (STEME) (Stellaria media (STEME) [4])

Cc1cc(C)c(-c2cc(CC3CC3)no2)c(Oc2ncc(Br)cn2)n1 [Example I-300]
90%: Post-emergence action against Stellaria media (STEME) (Stellaria media (STEME) [8]) | Pre-emergence efficacy against Stellaria media (STEME) (Stellaria media (STEME) [4])

Cc1cc(C)c(-c2cc(C3(C)CC3)no2)c(Oc2ncc(Cl)cc2F)n1 [Example I-301]
90%: Post-emergence efficacy against Veronica persica (VERPE) (Veronica persica (VERPE) [6]) | Post-emergence action against Stellaria media (STEME) (Stellaria media (STEME) [8])
